Measurements as given in US8586103B2, “Non-polymeric compositions for controlled drug delivery” (Foresee Pharmaceuticals, LLC, priority 2008, dated 2013).
Counter-ions that a name gives are not always drawn. Each block holds one molecule with its values, some of them ahead of it.

Key:
Type in all cases: physicochemical
[1] = In vitro release of doxorubicin from SAIB/NMP formulations; conditions: for Release (%) of DOX: 24 h, PBS 7.4, 37° C., 6% DOX loading
Description: Formulations were prepared using doxorubicin-HCl (DOX-HCl) and doxorubicin docusate (DOX-DSS) complex powders. Formulations were prepared by mixing DOX-HCL and DOX-DSS with SAIB solution in NMP to achieve 6% DOX loading as shown in Table 6.
(§1) An aliquot of the suspension was used for studying the in vitro release of DOX from different formulations. About 0.1 mL of each DOX formulation was injected into 3 mL of releasing buffer (PBS 7.4, containing 0.1% sodium azide) in a 4 mL glass vial. The vials were incubated at 37° C. and sampled at various time points. At each time point, 2 mL of release medium was removed and replaced with 2 mL of fresh release medium. The collected samples were analyzed for peptide concentration and integrity by HPLC using an YMC-Pack ODS-120A column. Triplicate samples were used for each formulation.

[2] = In vitro release of leuprolide from SAIB/NMP formulations; conditions: after two weeks; PBS 7.4, 37° C.; SAIB/NMP formulation, about 6% leuprolide
Description: (§2) In another embodiment, the release rate of the compositions of the present invention was determined in vitro. About 0.1 mL of each formulation was injected into 3 mL of releasing buffer (PBS 7.4, containing 0.1% sodium azide) in a 4 mL glass vial. The vials were incubated at 37° C. and sampled at various time points. At each time point, 2 mL of release medium was removed and replaced with 2 mL of fresh release medium. The collected samples were analyzed for bioactive substance concentration and integrity by HPLC using an YMC-Pack ODS-120A column or equivalent. Triplicate samples were used for each formulation.
Formulations were prepared by mixing leuprolide acetate (LA-Ac), leuprolide dodecyl sulfate (LA-SDS), leuprolide docusate (LA-DSS) and leuprolide oleate (LA-OL) complex powders with SAIB solution in NMP (90% w/w).
as §1, with “for” for “for studying”, “release.” for “release of DOX from different formulations.”, “leuprolide” for “DOX”

[3] = Appearance and phase separation of octreotide formulations in SAIB/NMP; conditions: for appearance when combined with SAIB/NMP solution: octreotide about 6%
Description: A solution of sucrose acetate isobutyrate (SAIB) in N-methyl-2-pyrrolidone (NMP) at a concentration of 80% by weight was prepared by combining 2 g NMP with 8 g SAIB followed by gentle mixing. A clear, low viscosity solution was obtained. Then 60 mg octreotide acetate was dissolved in 100 μL NMP which was combined with 900 μL SAIB solution in NMP (80%) and mixed well to obtain a formulation containing about 6% of octreotide acetate.
Since both SAIB and octreotide acetate were quite soluble in NMP, a clear solution was expected after two solutions in the same solvent (NMP) were mixed. […] Therefore, such a formulation is not suitable for preparation of a stable, single-phase formulation of octreotide in SAIB/NMP solution.
(§3) Octreotide acetate (OCT-Ac), octreotide dodecyl sulfate (OCT-SDS) and octreotide docusate (OCT-DSS) complex powders were dissolved in NMP. Then the solutions containing various salt forms of octreotide were thoroughly mixed with SAIB solution in NMP (90% w/w).
Chunky solid precipitates were observed and an inhomogeneous formulation was obtained as observed in Example 1. This inhomogeneous formulation will block needles and is not suitable for injection. […] This formulation can be prepared immediately prior to administration or suitable for storage for a period of time by adjusting the formulation parameters. […] This formulation may be packaged and stored for a long period of time at room temperature.
Octreotide acetate (OCT-Ac) and octreotide dodecyl sulfate (OCT-SDS) complex powders were dissolved in NMP. Then the solutions containing various salt forms of octreotide were thoroughly mixed with SAIB solution in NMP (90% w/w).
A chunky aggregate was formed at the bottom of the formulation (FIG. 1(a)). This inhomogeneous formulation is clearly not suitable for injection to form a consistent depot system in situ for controlled release.

[4] = Stability of the octreotide in formulations at room temperature over time (HPLC); conditions: SAIB/NMP formulation
Description: Those peaks were not observed from the formulation at the beginning, indicating the generation of impurities or degradation products of the octreotide. The intensity of these peaks increased with the increase of time, while the peak for octreotide decreases over time. […] Therefore, this type of formulation must be modified to be suitable for controlled release delivery of various bioactive substances.
as §3
After two hours, about 4% of the octreotide was degraded or reacted.

[5] = In vitro release of octreotide from SAIB/NMP formulations; conditions: PBS 7.4, 37° C., SAIB/NMP formulation, about 6% octreotide
Description: as §2
An aliquot of the suspension was used for the in vitro release. About 0.1 mL of each formulation containing octreotide was injected into 3 mL of releasing buffer (PBS 7.4, containing 0.1% sodium azide) in a 4 mL glass vial. The vials were incubated at 37° C. and sampled at various time points. At each time point, 2 mL of release medium was removed and replaced with 2 mL of fresh release medium. The collected samples were analyzed for peptide concentration and integrity by HPLC using an YMC-Pack ODS-120A column. Triplicate samples were used for each formulation.

[6] = In vitro release of pramipexole from SAIB formulations; conditions: PBS buffer, 37° C., about 6% PPL in 90% SAIB in NMP
Description: Formulations containing about 6% PPL of different salt forms were prepared by mixing PPL with 90% SAIB solutions in NMP. Injections of roughly 100 mg were made into vials with 3 mL PBS buffer and 0.1% NaN3. Gel-like pellets formed and the vials were placed on a shaker at 37° C. The release of PPL was measured by removing 2 mL of the release media at specified times and replacing it with 2 mL of fresh buffer. The concentration in the release media was determined by reverse phase HPLC.

[7] = Integrity of GEN-DSS SAIB/NMP pellets in PBS buffer; conditions: about 6% and 2% GEN-DSS with 90% SAIB in NMP, incubated at 37° C.
Description: Formulations containing about 6% and 2% GEN-DSS with 90% SAIB in NMP were prepared. Injections of roughly 100 mg were made into vials with 3 mL PBS buffer and 0.1% NaN3. Gel-like pellets were formed at room temperature.

[8] = Phase behaviour of lysozyme SAIB/NMP pellets in PBS buffer; conditions: about 6% with 90% SAIB in NMP, shaker at 37° C.
Description: Formulations containing about 6% LYZ and LYZ-DSS (85.2% LYZ) with 90% SAIB in NMP were prepared. Injections of roughly 100 mg were made into vials with 3 mL PBS buffer and 0.1% NaN3. Gel-like pellets were formed at room temperature and put on a shaker at 37° C. […] An improved depot system was achieved the complexation of lysozyme with amphiphilic molecule DSS.

Molecule: CCCCC(CC)COC(=O)CC(C(=O)OCC(CC)CCCC)S(=O)(=O)O.COc1cccc2c1C(=O)c1c(O)c3c(c(O)c1C2=O)CC(O)(C(=O)CO)CC3OC1CC(N)C(O)C(C)O1 (centres unmarked) [DOX-DSS, doxorubicin docusate]
Release (%) of DOX [1]: Less than 8%
reduction of the initial burst release of DOX by complexation with DSS ([1]; versus DOX-HCl formulation): ~10 fold

Molecule: COc1cccc2c1C(=O)c1c(O)c3c(c(O)c1C2=O)C[C@@](O)(C(=O)CO)C[C@@H]3O[C@H]1C[C@H](N)[C@H](O)[C@H](C)O1 [DOX-HCl, doxorubicin hydrochloride]
Release (%) of DOX [1]: More than 70%

Molecule: C[C@@H](O)[C@@H]1NC(=O)[C@H](CCCCN)NC(=O)[C@@H](Cc2c[nH]c3ccccc23)NC(=O)[C@H](Cc2ccccc2)NC(=O)[C@@H](NC(=O)[C@H](N)Cc2ccccc2)CSSC[C@@H](C(=O)N[C@H](CO)[C@@H](C)O)NC1=O [OCT-Ac, octreotide acetate]
appearance on mixing with SAIB solution in NMP ([3]; Example 1, about 6% octreotide acetate, SAIB solution in NMP (80%)): opaque suspension with chunky aggregates
phase separation on standing ([3]; Example 1, room temperature overnight): two distinguished phases
phase separation on standing ([3]; Example 1, room temperature, within a few hours): appearance of phase separation was observed
appearance when combined with SAIB/NMP solution ([3]; Example 7, SAIB about 70%): phase separation occurred immediately
appearance when combined with SAIB/NMP solution ([3]; Example 8, SAIB about 80%): phase separation occurred even faster
octreotide degraded ([4]; after 5 days): More than half
octreotide degraded or reacted ([4]; after two hours): about 4%
octreotide released ([5]; after two weeks): more than 90%
octreotide released ([5]; within 24 hours): More than 60%

Molecule: Gentamycin Docusate [GEN-DSS]
behaviour of gel-like pellets [7]: began to disintegrate and fall apart within a few hours

Molecule: Lysozyme Docusate [LYZ-DSS]
phase behaviour of pellets [8]: remained one phase

Molecule: lysozyme [LYZ]
phase behaviour of pellets [8]: phase separated after one day

Next, values leading:

leuprolide released [2]: almost all
Molecule: CCNC(=O)[C@@H]1CCCN1C(=O)[C@H](CCCNC(=N)N)NC(=O)[C@H](CC(C)C)NC(=O)[C@@H](CC(C)C)NC(=O)[C@H](Cc1ccc(O)cc1)NC(=O)[C@H](CO)NC(=O)[C@H](Cc1c[nH]c2ccccc12)NC(=O)[C@H](Cc1c[nH]cn1)NC(=O)[C@@H]1CCC(=O)N1 [LA-Ac, leuprolide acetate]

pramipexole released ([6]; after one week): about 90%
pramipexole released ([6]; within 24 hours): More than 60%
Molecule: CCCN[C@H]1CCc2nc(N)sc2C1.Cl [PPL-HCl]

leuprolide released [2]: almost all
Molecule: leuprolide oleate [LA-OL]

appearance when combined with SAIB/NMP solution ([3]; Example 7, SAIB about 70%): transparent uniform solution
Molecule: octreotide docusate [OCT-DSS]

appearance when combined with SAIB/NMP solution ([3]; Example 7, SAIB about 70%): homogeneous suspension
phase separation after 24 hours ([3]; Example 8, SAIB about 80%, room temperature, 24 h): no significant phase separation
appearance when combined with SAIB/NMP solution ([3]; Example 8, SAIB about 80%): homogeneous milky suspension
Molecule: octreotide dodecyl sulfate [OCT-SDS]
